For the experiment, the target named is Substance-P receptor (Rattus norvegicus, UniProt P14600). The experiment can be described thus: ChEBML_1632341. As for the experimental part:
Displacement of [Leu-3,4,5-3H(N)]-Substance P from NK1 receptor in rat brain homogenate measured after 60 mins by microbeta scintillation counting analysis

The structures appear in SMILES notation.

The IC50 is the point on the concentration scale where inhibition reaches its midpoint.

Sequence of Substance-P receptor (P14600 whole entry): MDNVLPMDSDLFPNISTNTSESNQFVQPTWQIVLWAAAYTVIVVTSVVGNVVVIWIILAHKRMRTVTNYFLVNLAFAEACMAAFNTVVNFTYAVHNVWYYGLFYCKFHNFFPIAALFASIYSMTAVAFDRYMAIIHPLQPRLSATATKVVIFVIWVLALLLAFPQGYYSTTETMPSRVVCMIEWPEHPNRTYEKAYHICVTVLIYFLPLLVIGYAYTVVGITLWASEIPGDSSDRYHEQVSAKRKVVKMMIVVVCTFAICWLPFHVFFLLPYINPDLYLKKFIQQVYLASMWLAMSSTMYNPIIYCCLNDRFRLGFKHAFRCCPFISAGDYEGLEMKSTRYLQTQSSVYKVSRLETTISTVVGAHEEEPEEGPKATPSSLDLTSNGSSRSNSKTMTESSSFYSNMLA

Turning to `C[C@@H](NC(=O)[C@@H](N)Cc1ccc(O)cc1)C(=O)NCC(=O)N[C@@H](Cc1ccccc1)C(=O)NN=Cc1cc(C(F)(F)F)cc(C(F)(F)F)c1`, the IC50 stood at 4.2 nM.

Values taken from BindingDB's records for doi:10.1021/acsmedchemlett.6b00381 (Mossakowski Medical Research Centre Polish Academy of …, 2017).
